Laboratory results as given in patent US20260007639A1, “COMPOUNDS FOR THE TREATMENT OF NEUROMUSCULAR DISORDERS” (NMD PHARMA A/S, priority 2017, published 2026).

These molecules were tested against T1, CIC-1 channels (Rattus norvegicus, UniProt P35524) (assay: Electrophysiological measurement of compound inhibition of CIC-1 (Gm) in rat soleus muscle fibres: EC50 (Table 7)).
T1 sequence (P35524 1-994): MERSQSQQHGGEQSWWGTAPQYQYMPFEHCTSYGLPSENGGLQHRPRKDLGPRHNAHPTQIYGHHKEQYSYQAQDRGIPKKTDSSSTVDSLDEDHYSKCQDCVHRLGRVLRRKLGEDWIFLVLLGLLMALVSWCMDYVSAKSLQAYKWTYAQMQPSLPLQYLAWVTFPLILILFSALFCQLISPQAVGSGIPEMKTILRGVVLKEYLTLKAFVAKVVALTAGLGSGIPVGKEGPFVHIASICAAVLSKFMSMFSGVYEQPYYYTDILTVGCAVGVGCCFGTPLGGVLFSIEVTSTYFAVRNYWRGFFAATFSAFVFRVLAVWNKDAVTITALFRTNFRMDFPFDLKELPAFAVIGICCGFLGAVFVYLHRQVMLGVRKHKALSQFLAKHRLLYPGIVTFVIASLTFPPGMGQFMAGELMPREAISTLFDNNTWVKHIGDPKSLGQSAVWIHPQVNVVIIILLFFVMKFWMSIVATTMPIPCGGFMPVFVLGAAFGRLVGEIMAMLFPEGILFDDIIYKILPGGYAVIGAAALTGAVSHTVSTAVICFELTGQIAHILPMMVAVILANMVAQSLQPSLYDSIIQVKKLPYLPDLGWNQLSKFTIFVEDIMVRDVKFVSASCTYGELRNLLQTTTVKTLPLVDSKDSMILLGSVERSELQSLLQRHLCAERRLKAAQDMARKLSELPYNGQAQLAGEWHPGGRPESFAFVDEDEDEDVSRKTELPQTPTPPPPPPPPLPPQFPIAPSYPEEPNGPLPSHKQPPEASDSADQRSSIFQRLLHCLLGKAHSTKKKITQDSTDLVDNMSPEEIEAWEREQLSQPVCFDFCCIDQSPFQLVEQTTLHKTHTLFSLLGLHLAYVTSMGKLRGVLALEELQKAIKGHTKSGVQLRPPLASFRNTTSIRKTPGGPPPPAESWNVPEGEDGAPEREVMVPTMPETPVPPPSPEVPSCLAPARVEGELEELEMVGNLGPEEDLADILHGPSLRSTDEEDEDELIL

EC50 [µM] | Compound
2.9 | C[C@H](Oc1cc(F)c(Br)cc1-c1ccon1)C(=O)O [Compound A-44, (2S)-2-[4-bromo-5-fluoro-2-(1,2-oxazol-3-yl)phenoxy]propanoic acid]
3.3 | O=C(O)[C@H](CF)Oc1ccc(Br)cc1-c1ccon1 [Compound A-31, (2R)-2-[4-bromo-2-(1,2-oxazol-3-yl)phenoxy]-3-fluoropropanoic acid]
7.4 | O=C(O)COc1ccc(Br)cc1-c1ccon1 [Compound A-64, 2-[4-bromo-2-(1,2-oxazol-3-yl)phenoxy]acetic acid]
3.6 | C[C@H](Oc1ccc(Cl)cc1-c1ccno1)C(=O)O [Compound A-26, (2S)-2-[4-chloro-2-(1,2-oxazol-5-yl)phenoxy]propanoic acid]
5.6 | C[C@H](Oc1ccc(Br)cc1-c1csnn1)C(=O)O [Compound A-59, (2S)-2-[4-bromo-2-(1,2,3-thiadiazol-4-yl)phenoxy]propanoic acid]
